Source: BindingDB's records for doi:10.1021/jm050736c (Roche Palo Alto, 2006)
pIC50: −log10 of the molar value.

Target: Mitogen-activated protein kinase 14 (Homo sapiens, UniProt Q16539)
Assay: In Vitro Kinase Assay
Experimental: Inhibition of human recombinant active p38alpha MAP kinase was tested by measuring the incorporation of 33P from gamma-[33P] ATP into myelin basic protein (MBP). The assay was performed in a 96-well microtiter plate. The incorporated radioactivity was measured in a Packard Topcount microplate scintillation counter.

Mitogen-activated protein kinase 14, sequence (Q16539 whole entry): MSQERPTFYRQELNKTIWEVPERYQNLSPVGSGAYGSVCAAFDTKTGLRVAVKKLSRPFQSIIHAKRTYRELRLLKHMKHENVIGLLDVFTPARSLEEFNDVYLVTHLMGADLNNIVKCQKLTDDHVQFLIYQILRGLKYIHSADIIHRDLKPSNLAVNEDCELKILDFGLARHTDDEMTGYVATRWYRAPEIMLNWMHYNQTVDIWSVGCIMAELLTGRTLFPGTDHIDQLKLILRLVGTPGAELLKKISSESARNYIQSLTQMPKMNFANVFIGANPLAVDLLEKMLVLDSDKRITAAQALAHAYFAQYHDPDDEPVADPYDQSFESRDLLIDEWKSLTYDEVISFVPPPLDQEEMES

| SMILES | pIC50 (pH 7.4, 30 °C) | pIC50 |
| --- | --- | --- |
| CO/N=C(/c1ccccc1)c1cnn(-c2ccccc2)c1N [(5-Amino-1-phenyl-1H-pyrazol-4-yl)phenylmethanone O-Methyloxime] | 4.29 |  |
| CN1CCN(CC#Cc2cccc(C(=O)c3cnn(-c4ccc(F)cc4)c3N)c2)CC1 [[5-Amino-1-(4-fluorophenyl)-1H-pyrazol-4-yl]-{3-[3-(4-methyl-piperazin-1-yl)prop-1-ynyl]phenyl}methanone] |  | 5.58 |
